Test results published in patent publication US6576620B2, “Method of identifying partial adenosine A1 receptor agonists” (CV Therapeutics, Inc., priority 1999, dated 2003).
“And” between values parts separate entries of the source, which are not always exact repeats. Equal entries are not always repeated. Where two headings read alike, the source gives them in different places.

How the values were obtained:
Adenosine A1 receptor [1] = assay: A1-agonist stimulated [35S]GTPγS binding to G proteins; type: biochemical; conditions: for GTPγS (% of CPA): Table 5; for GTPγS: Table 1, compounds of Example 2, normalized to the full agonist CPA
Procedure: At the end of the incubation, each suspension was filtered and the retained radioactivity determined as described above.

Adenosine A1 receptor [2] = biological target: T1, Adenosine A1 receptor (Cavia porcellus, UniProt P47745); assay: Affinity binding (Ki) of Tables 4 and 5
T1 construct: from tissue; host or cells: guinea pig forebrain membranes
T1 sequence (P47745 1-326): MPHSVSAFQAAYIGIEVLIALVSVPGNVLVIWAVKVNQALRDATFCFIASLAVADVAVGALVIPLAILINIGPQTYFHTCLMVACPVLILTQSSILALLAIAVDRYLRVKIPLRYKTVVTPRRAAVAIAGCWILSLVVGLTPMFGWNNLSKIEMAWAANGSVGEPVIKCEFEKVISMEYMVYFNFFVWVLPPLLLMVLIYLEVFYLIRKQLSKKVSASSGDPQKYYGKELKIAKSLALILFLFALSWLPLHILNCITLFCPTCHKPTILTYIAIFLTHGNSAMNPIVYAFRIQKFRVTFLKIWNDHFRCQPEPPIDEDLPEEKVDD
Procedure: The binding affinity of a compound is evaluated in a competitive binding assay.

[3] = test system: guinea pig isolated heart; assay: A-V nodal conduction time / S-H interval, isolated perfused heart; conditions: for EC50: Cavia porcellus; for S-H interval Efficacy: Table 5, 2759 = CVT-2759
Procedure: This method evaluates the potencies of compounds to cause coronary vasodilation (A2A AdoR response) and to prolong A-V nodal conduction time (A1 AdoR response).
Rats and guinea pigs, of either sex weighing from 230 to 260 grams and 300 to 350 grams, respectively, were used in this study. Animals were anesthetized by peritoneal injection of a cocktail containing ketamine and xylazine (ketamine 100 mg, xylazine 20 mg/ml). The chest was opened and the heart quickly removed. The heart was briefly rinse in ice-cold Krebs-Henseleit solution (see below), and the aorta cannulated. The heart was then perfused at a flow rate of 10 ml/min with modified Krebs-Henseleit (K-H) solution containing NaCl 117.9, KCl 4.5, CaCl2 2.5, MgSO4 1.18, KH2PO4 1.18, pyruvate 2.0 mmol. The K-H solution (pH 7.4) was gassed continuously with 95% O2 and 5% CO2 and warmed to 35±0.50° C. The heart was electrically paced at a fixed cycle length of […] (250 beats/min) using a bipolar electrode place on the left atrium. The electrical stimuli were generated by a Grass stimulator (Model S48, W. Warwick, R.I.) and delivered through a Stimuli Isolation Unit (Model SIU5, Astro-Med, Inc., NY) as square-wave pulses of 3-msec in duration and amplitude of at least twice the threshold intensity.
A1 adenosine receptor-mediated depression of A-V nodal conduction time (negative dromotropic effect) was measured. Atrial and ventricular surface electrograms in rats and His bundle electrogram in guinea pigs, were recorded during constant atrial pacing.
The effects of compounds on coronary conductance (A2A effect) and atrioventricular conduction time or stimulus-to-His-bundle (S-H) interval (A1 effect) was then determined. Hearts were instrumented for continuous recording of coronary perfusion pressure (A2A response) and atrioventricular (A-V) conduction time or S-H interval (A1 response). In each experiment, concentration-response relationship of compounds to increase coronary conductance and to prolong A-V conduction time or S-H interval was determined. After control measurements of CPP and A-V conduction time or S-H interval were made, progressive higher concentrations of the compound studied was administered until maximal coronary vasodilation and A-V nodal conduction time or S-H interval prolongation were achieved.
Guinea pigs (Hartley) of either sex weighing 300-350 g were anaesthetized with methoxyflurane and killed by decapitation. The chest was cut open and the heart was removed quickly and rinsed in ice-cold modified Krebs-Henseleit (K-H) solution. The contents of the modified K-H solution were (in mM): NaCl 117.9, KCl 4.8, CaCl2 2.5, MgSO2 1.18, KH2PO4 1.2, Na2 EDTA 0.5, ascorbic acid 0.14, dextrose 5.5, pyruvic acid (sodium salt) 2.0, and NaHCO3 25. The K-H solution was continuously gassed with 95% oxygen and 5% CO2, and the pH was adjusted to a value of 7.4. To perfuse the heart by the Langendorff method, the transected aorta was slid onto a glass cannula and secured by a ligature. Retrograde perfusion of the aorta was initiated immediately at a constant flow of 10 ml min-′ with modified K-H solution warmed to 36.0±0.5° C. A side port in the cannula was used to connect the perfusion line to a Gould pressure transducer for measurement of coronary perfusion pressure. Coronary perfusion pressure was continuously recorded on a strip chart (Gould RS3400, Cleveland, Ohio) throughout each experiment. Coronary conductance (in ml min^−1 mmHg^−1) was calculated as the ratio of coronary flow (10 ml min^−1) to perfusion pressure (mm Hg). To facilitate the exit of fluid from the left ventricle, the leaflets of the mitral valve were trimmed with fine spring-handled scissors. When appropriate, hearts were paced at a constant rate using external electrodes. […]

[4] = test system: guinea pig isolated heart; assay: Monophasic action potential duration, isolated heart; conditions: bolus (100 μl) of 1 mM adenosine
Procedure: Signals were considered adequate if they were stable for at least 5-10 min and the amplitudes exceeded 10 mV. The data were digitized at 2 kHz by a DT-2801A digitizing board (Data Translation, Marlboro, Mass.) and were saved for analysis using the Snapshot data acquisition program (Snapshot Storage Scope, HEM Data Corp., Southfield, Mich.). The duration of the atrial and ventricular monophasic action potentials was measured from onset of depolarization to either 50 or 90% of repolarization.

[5] = test system: guinea pig isolated heart; conditions: previous study (12); cited from earlier work
[6] = Table 4, A-V nodal conduction time, read-out: EC50 A-V NCT
[7] = Table 5, S-H interval, read-out: EC50

SMILES | GTPγS (% of CPA) (Adenosine A1 receptor [1]) | Ki (Adenosine A1 receptor [2]; Table 4, read-out: Ki low) | Ki (Adenosine A1 receptor [2]; Table 5, read-out: Ki) | EC50 [3, 6] | EC50 [3, 7] | S-H interval Efficacy [3] | adenosine concentration causing second-degree AV block ([3]; absence of Compound 6 of Example 2) | duration of atrial monophasic action potential at 90% of repolarization [4] | maximal increase of coronary conductance [5] | GTPγS (Adenosine A1 receptor [1])
CNC(=S)OC[C@H]1O[C@@H](n2cnc3c(N[C@@H]4CCOC4)nc(Cl)nc32)[C@H](O)[C@@H]1O [Compound 81 of Example 2] | 84 % of CPA | 500 nM | 1110 nM | 600 nM | 530 nM | Partial | – | – | – | –
CCCNC(=S)OC[C@H]1O[C@@H](n2cnc3c(N[C@@H]4CCOC4)nc(Cl)nc32)[C@H](O)[C@@H]1O [Compound 83 of Example 2, 2-{6-[((3R)oxolan-3-yl)amino]-2-chloropurin-9-yl}(4S,2R,3R,5R)-5-{[(propylamino)thioxomethoxy]methyl}oxolane-3,4-diol] | 77 % of CPA | – | 443 nM | – | 610 nM | Partial | – | – | – | –
Nc1ncnc2c1ncn2[C@@H]1O[C@H](CO)[C@@H](O)[C@H]1O [Adenosine] | – | – | – | – | – | – | 6 µM | 22 ± 5 ms | 0.15±0.02 ml min^−1 mmHg^−1 | –
CCNC(=S)OC[C@H]1O[C@@H](n2cnc3c(N[C@@H]4CCOC4)ncnc32)[C@H](O)[C@@H]1O [Compound 46 of Example 2, 2-{6-[((3R)oxolan-3-yl)amino]purin-9-yl}(4S,2R,3R,5R)-5-{[(ethylamino)thioxomethoxy]methyl}oxolane-3,4-diol] | 77 % of CPA | – | 1110 nM | – | – | Full (Weak) | – | – | – | 77%
CNC(=S)OC[C@H]1O[C@@H](n2cnc3c(N[C@@H]4CCOC4)ncnc32)[C@H](O)[C@@H]1O [Compound 45 of Example 2, 2-{6-[((3R)oxolan-3-yl)amino]purin-9-yl}(4S,2R,3R,5R)-5-{[(methylamino)thioxomethoxy]methyl}oxolane-3,4-diol] | 77 % of CPA | 400 nM | 346 nM | 600 nM | 570 nM | Partial | – | – | – | 77%
CCCNC(=S)OC[C@H]1O[C@@H](n2cnc3c(N[C@@H]4CCOC4)ncnc32)[C@H](O)[C@@H]1O [Compound 49 of Example 2, 2-{6-[((3R)oxolan-3-yl)amino]purin-9-yl}(4S,2R,3R,5R)-5-{[(propylamino)thioxomethoxy]methyl}oxolane-3,4-diol] | 89 % of CPA | 900 nM | 895 nM | 1400 nM | – | Partial | – | – | – | 89%
O[C@@H]1[C@H](O)[C@@H](CSc2c(Cl)cccc2Cl)O[C@H]1n1cnc2c(N[C@@H]3CCOC3)ncnc21 [Compound 19 of Example 4, 2-{6-[((3R)oxolan-3-yl)amino]purin-9-yl}(4S,5S,2R,3R)-5-[(2,6-dichlorophenylthio)methyl]oxolane-3,4-diol] | 89 % of CPA | – | 1340 nM | – | – | Full (>2759) | – | – | – | –
O[C@@H]1[C@H](O)[C@@H](CSc2cccc(F)c2)O[C@H]1n1cnc2c(N[C@@H]3CCOC3)ncnc21 [Compound 20 of Example 4, 2-{6-[((3R)oxolan-3-yl)amino]purin-9-yl}(4S,5S,2R,3R)-5-[(3-fluorophenylthio)methyl]oxolane-3,4-diol] | 84.2 % of CPA | – | 1560 nM | – | – | Partial (= 2759) | – | – | – | –
O[C@@H]1[C@H](O)[C@@H](CSc2ccccc2F)O[C@H]1n1cnc2c(N[C@@H]3CCOC3)ncnc21 [Compound 21 of Example 4, 2-{6-[((3R)oxolan-3-yl)amino]purin-9-yl}(4S,5S,2R,3R)-5-[(2-fluorophenylthio)methyl]oxolane-3,4-diol] | 72 % of CPA | 600 nM | 372 nM and 221 nM | 1200 nM | 1260 nM | Partial (>2759) | – | – | – | –
CNC(=O)OC[C@H]1O[C@@H](n2cnc3c(N[C@@H]4CCOC4)ncnc32)[C@H](O)[C@@H]1O [compound 6] | – | 2600 nM | – | 3100 nM | – | – | – | – | – | –
O=C(NC1CCCC1)OC[C@H]1O[C@@H](n2cnc3c(N[C@@H]4CCOC4)nc(Cl)nc32)[C@H](O)[C@@H]1O [Compound 69 of Example 2, [(5-{6-[((3R)oxolan-3-yl)amino]-2-chloropurin-9-yl}(3S,2R,4R,5R)-3,4-dihydroxyoxolan-2-yl)methoxy]-N-cyclopentylcarboxamide] | 69 % of CPA | – | > 1460 nM | – | – | Partial (= 2759) | – | – | – | 50%
